Experimental data as given in patent US20210062178A1, “NOVEL XYLOSE ISOMERASE GENE AND POLYPEPTIDE AND USES THEREOF” (The Regents of the University of California, priority 2019, published 2021).

Tested on: new D-xylose isomerase (XI) 8454_2 from the gut of Odontotaenius disjunctus, SEQ ID NO: 2
Test: Enzymatic activity of xylose isomerase in crude cell extracts, coupled sorbitol dehydrogenase (SDH) assay, NADH depletion at 340 nm
Assay type: biochemical
Description: This clone was then was cultivated in liquid medium containing xylose as the sole carbon source in parallel with an identical clone carrying the same metabolic pathway, but instead expressing a XI from Piromyces sp (opt.PiXI). Opt.PiXI is a codon-optimized version of the XI gene from Piromyces sp.
Specific enzymatic activity was measured using a coupled enzyme (sorbitol dehydrogenase—SDH) that converts the product of XI (xylulose) into xylitol. In this process, for each molecule of xylose converted to xylulose, a molecule of NADH is converted in NAD+. NADH depletion is quantified by spectrophotometry at an optical density of 340 nm, and XI activity is stoichiometrically inferred. For the enzymatic activity, crude cell extracts were prepared using the same conditions for both strains (carrying 8454_2 or opt.PiXI genes) and immediately used.

For `OC1OC[C@@H](O)[C@H](O)[C@H]1O` (stereo partly drawn) [D-xylose], the “isomerization maximal velocity (Vmax) relative to the XI from Piromyces sp.” value (compared with XI from Piromyces sp. (opt.PiXI) under identical biological backgrounds and experimental conditions) was “three times higher” and the Km (new XI, expressed in S. cerevisiae) was 19 mM.
